Reference: ChEMBL document CHEMBL5543103, “Toward a Template for Synthetic Actin-Targeting Macrolide Analogues That Inhibit Cancer Cell Invasiveness” (J Med Chem, 2024)
Active and inactive are the calls of the source. The rule behind the calls is not given here.

Assays:
Homo sapiens = species: Homo sapiens; test: Induction of F-actin depolymerization (unknown origin) at 10 uM measured for 900 sec in presence of ATP by fluorescence spectrophotometer method relative to MycB
A549 [1] = test: Inhibition of cell invasion in human A549 cells assessed as decrease in wound density at 10 uM after 50 hrs by IncuCyte live-cell imaging analysis; type: functional, cell-based
Oryctolagus cuniculus = species: Oryctolagus cuniculus; test: (§1) Inhibition of rabbit skeletal muscle G-actin polymerization at 0.5 uM preincubated for 50 sec followed by ATP addition and measured for 600 sec by fluorescence spectrophotometer method relative to control; settings: time 650.0 sec
[2] = Partition coefficient, logP of compound; type: physicochemical; settings: octanol/water
[3] = as §1; set-up: species or system Oryctolagus cuniculus
L1210 = test: Cytotoxicity against mouse L1210 cells; type: functional, cell-based
Cell membrane [4] = test: Disruption of membrane in human SKOV3 cells assessed as F-actin aggregates formation at 0.1 uM; type: cell membranes; settings: SK-OV-3
Cell membrane [5] = test: Disruption of membrane projections in human SK-OV-3 cells at 0.1 uM; type: cell membranes
B16 = test: Cytotoxicity against mouse B16 cells; type: functional, cell-based
A549 [6] = test: Inhibition of cell invasion in human A549 cells assessed as decrease in wound density at 0.1 uM after 50 hrs by IncuCyte live-cell imaging analysis; type: functional, cell-based
Cell membrane [7] = test: Disruption of membrane in human SK-OV-3 cells assessed as F-actin aggregates formation at 1 uM; type: cell membranes
Cell membrane [8] = test: Disruption of membrane projections in human SK-OV-3 cells at 1 uM; type: cell membranes
KB = test: Cytotoxicity against human KB cells; type: functional, cell-based

| Compound | Activity (Homo sapiens) | inhibition (Oryctolagus cuniculus) | other results |
| --- | --- | --- | --- |
| CO[C@@H]([C@@H](C)[C@@H](CC[C@H](C)[C@H](C[C@H](OC(=O)CCCN)C(C)C)OC)OC(=O)[C@H]1CCCO1)[C@H](C)/C=C/N(C)C=O | 58% | 53% | inhibition (A549 [1]): Active; logP [2]: 4.18 |
| CCC(=O)O[C@@H](C[C@H](OC)[C@@H](C)CC[C@@H](OC(=O)C(C)C)[C@H](C)[C@H](OC)[C@H](C)/C=C/N1CCCCC1=O)C(C)C | 14% | 18% | – |
| CCC(=O)O[C@H](CC)C[C@H](OC)[C@@H](C)CC[C@H](OC(=O)CC)[C@H](C)[C@H](OC)[C@H](C)/C=C/N(C)C=O | 17% | – | IC50 [3]: 5500 nM |
| CCC(=O)O[C@@H](C[C@H](OC)[C@@H](C)CC[C@@H](OC(=O)C(C)C)[C@H](C)[C@H](OC)[C@H](C)/C=C/N1CCC1=O)C(C)C | 12% | 30% | – |
| CO[C@@H]1C/C=C/c2nc(co2)-c2nc(co2)-c2nc(co2)[C@@H](C)CC(=O)CCC[C@@H](O)CC(=O)O[C@H](C[C@@H](OC)[C@@H](C)CCC(=O)[C@H](C)[C@H](OC(C)=O)[C@H](C)/C=C/N(C)C=O)[C@H]1C | – | – | IC50 (L1210): 10 nM |
| CCC(=O)O[C@@H](C[C@H](OC)[C@@H](C)CC[C@@H](OC(=O)C(C)C)[C@H](C)[C@H](OC)[C@H](C)/C=C/N(C)C=O)C1CCCCC1 | 45% | 52% | – |
| CO[C@@H](C[C@@H]1OC(=O)C[C@@H](O)C[C@H](O)C[C@H](O)[C@H](C)[C@@H](OC)c2coc(n2)-c2coc(n2)-c2coc(n2)/C=C/CC[C@H]1C)[C@@H](C)CCC(=O)[C@H](C)[C@@H](C/C=C/N(C)C=O)OC | – | – | IC50 (L1210): < 1 nM |
| COC[C@@H](OC)C(=O)O[C@H](CC[C@H](C)[C@H](C[C@@H]1OC(=O)C[C@@H](O)C/C=C/C(=O)[C@H](C)[C@H](OC)c2coc(n2)-c2coc(n2)-c2coc(n2)/C=C/C[C@H](OC)[C@H]1C)OC)[C@H](C)[C@H](OC(C)=O)[C@H](C)/C=C/N(C)C=O | – | – | Activity (Cell membrane [4]): Active; Activity (Cell membrane [5]): Active; IC50 (B16): 0.5 nM; inhibition (A549 [6]): Active |
| CCC(=O)O[C@@H](C[C@H](OC)[C@@H](C)CC[C@@H](OC(=O)C1CCC1)[C@H](C)[C@H](OC)[C@H](C)/C=C/N(C)C=O)C(C)C | 52% | 67% | – |
| CCN(C=O)/C=C/[C@@H](C)[C@@H](OC)[C@@H](C)[C@@H](CC[C@H](C)[C@H](C[C@H](OC(=O)CCCN)C(C)C)OC)OC(=O)[C@H]1CCCO1 | – | – | Activity (Cell membrane [7]): Active; Activity (Cell membrane [8]): Active; inhibition (A549 [1]): Active; logP [2]: 4.55 |
| CCC(=O)O[C@@H](C[C@H](OC)[C@@H](C)CC[C@@H](OC(=O)[C@H]1CCCO1)[C@H](C)[C@H](OC)[C@H](C)/C=C/N(C)C=O)C(C)C | 75% | 72% | logP [2]: 5.3 |
| CO[C@@H]1CC2=CC(=O)O[C@H](C2)[C@H](C)[C@H](OC)C[C@@H](OC)/C=C/[C@H](C)[C@@H](OC)C[C@@H](OC)/C=C/[C@H](C)[C@@H]([C@@H](C)[C@@H](OC)[C@@H](C)CCC(=O)[C@H](C)[C@@H](C/C=C/N(C)C=O)OC)OC(=O)/C=C/C=C(\C)C1 | – | – | IC50 (KB): 100 nM |
| CCC(=O)O[C@@H](C[C@H](OC)[C@@H](C)CC[C@@H](OC(=O)C1CCCCC1)[C@H](C)[C@H](OC)[C@H](C)/C=C/N(C)C=O)C(C)C | 20% | 65% | – |
| CCCN(C=O)/C=C/[C@@H](C)[C@@H](OC)[C@@H](C)[C@@H](CC[C@H](C)[C@H](C[C@H](OC(=O)CC)C(C)C)OC)OC(=O)C(C)C | 32% | 40% | – |
| CCC(=O)O[C@@H](C[C@H](OC)[C@@H](C)CC[C@@H](OC(=O)[C@H]1CCCN1C)[C@H](C)[C@H](OC)[C@H](C)/C=C/N(C)C=O)C(C)C | 25% | 45% | – |
| CCC(=O)O[C@H](CC)C[C@H](OC)[C@@H](C)CC[C@@H](OC(=O)C(C)C)[C@H](C)[C@H](OC)[C@H](C)/C=C/N(C)C=O | 33% | 40% | – |
| CCC(=O)O[C@@H](C[C@H](OC)[C@@H](C)CC[C@@H](OC(=O)C(C)C)[C@H](C)[C@H](OC)[C@H](C)/C=C/N(C)C=O)C(C)C | 6% | 21% | – |
| CCC(=O)O[C@@H](C[C@H](OC)[C@@H](C)CC[C@@H](OC(=O)[C@@H]1CCCO1)[C@H](C)[C@H](OC)[C@H](C)/C=C/N(C)C=O)C(C)C | 67% | 50% | – |
| CCC(=O)O[C@@H](C[C@H](OC)[C@@H](C)CC[C@@H](OC(=O)c1ccco1)[C@H](C)[C@H](OC)[C@H](C)/C=C/N(C)C=O)C(C)C | 41% | 43% | – |
| CCC(=O)O[C@@H](C[C@H](OC)[C@@H](C)CC[C@@H](OC(=O)C(C)C)[C@H](C)[C@H](OC)[C@H](C)/C=C/N1CCCC1=O)C(C)C | 26% | 29% | – |
| CCC(=O)O[C@@H](C[C@H](OC)[C@@H](C)CC[C@@H](OC(=O)C(C)C)[C@H](C)[C@H](OC)[C@H](C)/C=C/N(C=O)CC(F)(F)F)C(C)C | 53% | 81% | – |
| CCC(=O)O[C@@H](C[C@H](OC)[C@@H](C)CC[C@@H](OC(=O)C1CCCC1)[C@H](C)[C@H](OC)[C@H](C)/C=C/N(C)C=O)C(C)C | 39% | 53% | – |
| CCC(=O)O[C@@H](C[C@H](OC)[C@@H](C)CC[C@@H](OC(=O)[C@H]1CCCO1)[C@H](C)[C@H](OC)[C@H](C)/C=C/N(C=O)CC)C(C)C | 77% | 63% | logP [2]: 5.67 |
| CC[C@@H](O)C[C@H](OC)[C@@H](C)CC[C@@H](OC(=O)C(C)C)[C@H](C)[C@H](OC)[C@H](C)/C=C/N(C)C=O | 0% | 30% | – |
| CCC(=O)O[C@H](CC)C[C@H](OC)[C@@H](C)CC[C@@H](OC(=O)CC)[C@H](C)[C@H](OC)[C@H](C)/C=C/N(C)C=O | 42% | – | IC50 [3]: 1000 nM |
| CCC(=O)O[C@@H](C[C@H](OC)[C@@H](C)CC[C@@H](OC(=O)C(C)C)[C@H](C)C(OC)[C@H](C)/C=C/N(C=O)C1CC1)C(C)C (single isomer, unassigned) | 56% | 77% | – |
| CCC(=O)O[C@@H](C[C@H](OC)[C@@H](C)CC[C@@H](OC(=O)C(C)C)[C@H](C)[C@H](OC)[C@H](C)/C=C/N(C=O)CC)C(C)C | 87% | 85% | – |
| CO[C@H]([C@H](C)/C=C/N(C)C=O)[C@@H](C)C(=O)CC[C@H](C)[C@H](C[C@@H]1OC(=O)C[C@@H](OC(N)=O)C[C@H](C)C[C@H](O)[C@H](C)[C@@H](OC)c2coc(n2)-c2coc(n2)-c2coc(n2)/C=C/C[C@H](OC)[C@H]1C)OC [KABIRAMIDE C] | – | – | IC50 (L1210): 10 nM |
